Activity calls are given as the source filed them. How the calls were made is not given here.

For orientation: IC50 means the concentration that gives 50% inhibition.

This assay has as its system S. cerevisiae tim10-1 mutant yeast, luminescence growth read-out. Briefly: growth inhibition of tim10-1 mutant yeast, SAR follow-up, counter-screen for tim23-1 inhibitor project, luminescence, S. cerevisiae (AID 602378). (In general: The purpose of a counterscreen is to sort out artefacts and off-target activity.)
With `Cc1nc2scc(C)n2c(=O)c1S(=O)(=O)Nc1ccc(Oc2ccc(Cl)cc2)cc1`, the IC50 is > 99 µM (inactive).
Next, `NC(=O)C1CCN(c2nc(-c3cccnc3)nc3ccccc23)CC1`: > 99 µM (inactive).
Next, `CCOc1cc2ccccc2cc1C(=O)O/N=C(\N)c1ccc(Cl)cc1`: 1.61 µM.
To `N#C/C(=C\c1ccc(Cl)cc1)C(=O)Nc1cccnc1` belongs 25.6 µM.
With `O=C(Nc1ccc2nc(-c3ccc(Br)o3)[nH]c2c1)c1cccs1`, the IC50 was 24.6 µM.
Next, `O=C(N/N=C/C(Cl)=C\c1ccccc1)c1cccs1`: 42.7 µM; `Cc1nc2scc(C)n2c(=O)c1S(=O)(=O)Nc1cccc(O)c1`: > 99 µM (inactive).
With `COc1ccc(/C=C/C(=O)Nc2ccc3c(c2)CCC3)cc1OC`, the IC50 was 17.5 µM.
Next, `Nc1cccc(Oc2ccc(Oc3cccc(N)c3)cc2)c1`: > 99 µM (inactive); `CS(=O)(=O)Nc1ccc(/C(N)=N/OC(=O)c2ccccc2Cl)cc1`: > 99 µM (inactive).
Next, `O=C(Nc1ccc(-c2cn3ccccc3n2)cc1)c1cccs1`: > 99 µM (inactive); `Cc1ccc(-c2nn(-c3ccccc3)cc2NC(=O)CCl)cc1`: 1.88 µM; `Cc1ccc2nc(N3C(=O)CNC3=S)sc2c1`: 13 µM.
Next, `CCCN(C(=O)c1ccc([N+](=O)[O-])c(C)c1)c1c(N)n(Cc2ccccc2)c(=O)[nH]c1=O`: 1.08 µM; `Cc1ccc(OCC(=O)O/N=C(\N)Cc2ccc(Cl)cc2)cc1`: 2.57 µM; `N/C(=N\OC(=O)c1ccccc1)c1ccc(F)cc1F`: 6.71 µM.
With `CC1(C)C=Cc2cc(/C(N)=N/OC(=O)c3ccccc3)ccc2O1`, the 50% inhibitory concentration (IC50) is 0.66 µM.
Consider `N#Cc1c(-c2ccccc2)cc(-c2ccc(O)cc2)nc1N`, for which the half-maximal inhibitory concentration (IC50) is 10.3 µM.
To `COc1cc2c(cc1OC)/C(=C/c1ccc(Cl)cc1)C(=O)OC2` belongs 10.8 µM.
To `N/C(=N\OC(=O)c1cccc2ccccc12)c1ccc(Cl)cc1` belongs 1.03 µM.
With `CC(=O)c1ccc(NS(=O)(=O)c2c(C)nc3scc(C)n3c2=O)cc1`, the IC50 was > 99 µM (inactive).
Turning to `Cc1noc(C)c1S(=O)(=O)Nc1ccc(-c2cn3c(n2)SCC3)cc1`, the IC50 was > 99 µM (inactive).
To `O=C1OC(c2ccccc2)=N/C1=C\C=C\c1ccco1` belongs 3.62 µM.
As to `Cc1nc2scc(C)n2c(=O)c1S(=O)(=O)Nc1ccc(OC(F)(F)F)cc1`, the IC50 was 26.5 µM.
Consider `CCOc1ccc(NS(=O)(=O)c2c(C)nc3scc(C)n3c2=O)cc1`, for which the IC50 was > 99 µM (inactive).
Next, `COc1ccc(Cl)cc1NS(=O)(=O)c1c(C)nc2scc(C)n2c1=O`: > 99 µM (inactive).
Next, `N/C(Cc1cccc2ccccc12)=N\OC(=O)COc1ccc(Cl)cc1Cl`: 27.9 µM; `Cc1nc2scc(C)n2c(=O)c1S(=O)(=O)Nc1ccc(N2CCN(S(C)(=O)=O)CC2)cc1`: > 99 µM (inactive); `O=C(CSc1cccc[n+]1[O-])Nc1ccccc1Oc1ccccc1`: 0.949 µM.
Next, `N/C(=N\OC(=O)c1ccc(Cl)cc1)c1cccc(CS(=O)(=O)c2ccccn2)c1`: 14 µM; `CCCCOc1ccc(C(=O)O/N=C(\N)c2cccc(Br)c2)cc1`: 1.09 µM; `Cc1nn(Cc2cccc(C(=O)O/N=C(\N)c3ccc(Cl)cc3)c2)c(C)c1Br`: 1.51 µM.
For `Cc1nc2scc(C)n2c(=O)c1S(=O)(=O)Nc1ccc(N2CCOCC2)cc1`, the IC50 was > 99 µM (inactive).
Next, `Cc1cc(OCC(=O)O/N=C(\N)Cc2ccc(Cl)cc2)ccc1Br`: 3.28 µM; `Cc1ccc2nc(CSc3ccc(S(=O)(=O)N4CCCC4)cn3)cc(=O)n2c1`: > 99 µM (inactive).
Regarding `CC(C)Cn1cnc2c(c(-c3ccccc3)c(-c3ccccc3)n2Cc2ccco2)c1=N`, the IC50 was 16.8 µM.
To `CCOc1ccc2nc(N3C(=O)CNC3=S)sc2c1` belongs > 99 µM (inactive).
To `Cc1ccc(-c2nc3ccc(NC(=O)c4cccs4)cc3[nH]2)o1` belongs 16.4 µM; to `Oc1ccc(Oc2ccc(Oc3ccc(O)cc3)cc2)cc1`, 25.6 µM.
As for `O=C(Nc1nc2ccccc2s1)C1CCCN1S(=O)(=O)c1ccc(Cl)cc1` (stereo not given), the IC50 was 13.1 µM.
Next, `O=C(CSCc1ccccc1)Nc1cc(S(=O)(=O)N2CCOCC2)ccc1Oc1ccccc1`: > 99 µM (inactive).
On to `O=c1cc(CSc2ccc(S(=O)(=O)N3CCOCC3)cn2)nc2ccc(Br)cn12`, for which the IC50 is 77.4 µM.
To `N/C(=N\OC(=O)c1ccc2ccccc2c1)c1ccc(I)cc1` belongs > 99 µM (inactive); to `O=c1cc(CSc2ccc(S(=O)(=O)N3CCCCC3)cn2)nc2ccc(Br)cn12`, > 99 µM (inactive); to `Cc1ccc(/C(N)=N/OC(=O)c2ccccc2)cc1F`, 1.12 µM.
To `Cc1nc2scc(C)n2c(=O)c1S(=O)(=O)Nc1ccc(N2CCOCC2)c(Cl)c1` belongs > 99 µM (inactive).
Next, `CC(C)(C)c1csc(NC(=O)c2ccc(Cl)s2)n1`: 54.7 µM; `N/C(=N\OC(=O)c1ccc(Cl)cc1)c1ccc(Cl)cc1`: 1.1 µM.
Take `C=C1CCc2c([nH]c3ccc(OCC(C)C)cc23)C1=O`: the IC50 was > 99 µM (inactive).
To `Cc1ccc2nc(CS(=O)(=O)c3ncccc3Cl)cc(=O)n2c1` belongs > 99 µM (inactive); to `O=C(Nc1ccn[nH]1)c1cccc(OCc2cccnc2)c1`, > 99 µM (inactive).
Next, `Cc1nc2scc(C)n2c(=O)c1S(=O)(=O)Nc1cc(C(F)(F)F)ccc1Cl`: > 99 µM (inactive); `CC(=O)c1ccc2[nH]c3c(c2c1)CCCC3=O`: > 99 µM (inactive).
To `CCN(C(=O)c1cccc2ncccc12)c1c(N)n(Cc2ccccc2)c(=O)[nH]c1=O` belongs > 99 µM (inactive); to `Cc1ccc(Nc2nc(-c3cccnc3)nc3ccccc23)cc1`, 14.1 µM; to `Cc1nc2scc(C)n2c(=O)c1S(=O)(=O)Nc1ccc(N2CCN(C(=O)C(C)C)CC2)cc1`, > 99 µM (inactive).
With `Cc1c2c(n(Cc3ccco3)c1C)N=CN1CCS(=O)(=O)N=C21`, the IC50 is > 99 µM (inactive).
Regarding `CN1CCc2nc3sc(C(=O)C45CC6CC(CC(C6)C4)C5)c(N)c3cc2C1`, the half-inhibitory concentration (IC50) is 69.3 µM.
Regarding `Cc1nc2scc(C)n2c(=O)c1S(=O)(=O)Nc1ccccc1`, the IC50 was 66.9 µM.
In the case of `Cc1csc(NC(=O)c2sc3nc4c(cc3c2N)CN(C)CC4)n1`, the IC50 is > 99 µM (inactive).

These data come from PubChem BioAssay AID602378 (Sanford-Burnham Center for Chemical Genomics, 2012).
